Data taken from paper PMC12794516, “Modulation of endothelial-to-mesenchymal transition via NRP-1 targeting with melittin attenuates pulmonary fibrosis” (Materials Today Bio, 2025).

Legend:
[1] = tested on: HUVECs; assay: Cell viability assay (MTS); assay type: cell-based, Human; conditions: 24 h incubation, n = 3
Method: Cell viability was assessed using the MTS assay (Promega). Briefly, HUVECs were seeded at 5000 cells/well in triplicate in a 96-well plate. When the density of the cells reached approximately 80 %, MLT at different concentrations was added, and the cells were incubated for 24 h. Then, 20 μL of MTS reagent was added to each well, followed by incubated for 2 h. Absorbance was measured at 490 nm using a microplate reader.

[2] = In vivo and ex vivo fluorescence imaging (biodistribution, blood and lung retention); parameters: species or system C57BL/6 mice
Method: To evaluate the biodistribution and lung targeting of MLT and M-pLNP, two fluorescence imaging experiments were performed in a BLM-induced PF model. In the first study, normal and PF mice (n = 6) received a single intraperitoneal injection of MLT-RhB (or PBS control), and were euthanized 30 min later for collection of major organs. In the second study, PF mice were randomly divided into two groups receiving either MLT-RhB or M-pLNP-RhB. Comprehensive in vivo whole-body fluorescence imaging was performed at multiple time points (10 min, 30 min, 1 h, 3 h and 6 h) after administration. Additionally, ex vivo analysis was conducted by collecting blood samples and lung tissues at […] critical time points (10 min, 30 min, 1 h, 6 h, 12 h, and 24 h). All imaging was performed using an IVIS Lumina XRMS system, in vivo and ex vivo samples were imaged through RhB channels (Ex/Em = 545/570 nm). Mean fluorescence intensity was used to quantitatively assess tissue distribution and lung accumulation.

[3] = tested on: NRP-1 receptor on HUVECs; assay: In vitro cell targeting (uptake of MLT-RhB, flow cytometry and confocal imaging); assay type: cell-based, Human; conditions: flow cytometry; HUVECs with TGF-β1 10 ng/mL 48 h; MLT-RhB 2 μg/mL 1 h; n = 3
Method: To assess the NRP-1 receptor-targeting ability of MLT, HUVECs were seeded into 96-well plates at a density of 1.5 × 10^4 cells per well and cultured overnight in complete growth medium. TGF-β1 (10 ng/mL) was added to all groups except the control group and incubated for 48 h. Subsequently, each group was treated with the RPARPAR peptide (0.5 mM) for 1 h, followed by the addition of MLT-RhB (2 μg/mL) for an additional hour. For flow cytometry, cells were processed and analyzed using a flow cytometer (Dakewe Biotech Co., Ltd., China), and data were analyzed with FlowJo software (FlowJo, Ashland, OR, USA). For immunofluorescence, following the same treatment protocol, cells were fixed with 4 % paraformaldehyde and immunostained. NRP-1 was detected using an anti-NRP-1 primary antibody and an Alexa Fluor® 647-conjugated secondary antibody. Nuclei were stained with DAPI. Imaging was performed using a SpinSR10 spinning disk confocal super-resolution microscope (Olympus, Japan) with the following excitation wavelengths: 405 nm for DAPI; 535 nm for RhB; and 640 nm for NRP-1.

[4] = RhB-labeled, single i.p. injection, PF mice, ex vivo lung fluorescence, n = 3

| Compound | concentration at which MLT started to induce cellular toxicity [1] [µg/mL] | time within which the blood fluorescence signal was nearly undetectable ([2]; RhB-labeled, single i.p. injection, 15 nmol RhB equivalent per mouse, PF mice, blood samples) [h] | time within which the peritoneal fluorescence signal was substantially weakened ([2]; RhB-labeled, single i.p. injection, 15 nmol RhB equivalent per mouse, PF mice, in vivo imaging) [min] | time by which lung fluorescence reached near-background levels (clearance) [2, 4] [h] | time of peak lung accumulation [2, 4] [min] | mean fluorescence intensity (MFI) of RhB in TGF-β1 group vs control group (uptake) [3] | lung radiant efficiency, PF lungs vs control ([2]; MLT-RhB single intraperitoneal injection, ex vivo imaging 30 min post-injection, PF vs normal mice, n = 3) [fold] |
| --- | --- | --- | --- | --- | --- | --- | --- |
| CC[C@H](C)[C@H](NC(=O)CN)C(=O)NCC(=O)N[C@@H](C)C(=O)N[C@H](C(=O)N[C@@H](CC(C)C)C(=O)N[C@@H](CCCCN)C(=O)N[C@H](C(=O)N[C@@H](CC(C)C)C(=O)N[C@H](C(=O)N[C@H](C(=O)NCC(=O)N[C@@H](CC(C)C)C(=O)N1CCC[C@H]1C(=O)N[C@@H](C)C(=O)N[C@@H](CC(C)C)C(=O)N[C@H](C(=O)N[C@@H](CO)C(=O)N[C@@H](Cc1c[nH]c2ccccc12)C(=O)N[C@H](C(=O)N[C@@H](CCCCN)C(=O)N[C@@H](CCCNC(=N)N)C(=O)N[C@@H](CCCCN)C(=O)N[C@@H](CCCNC(=N)N)C(=O)N[C@@H](CCC(N)=O)C(=O)N[C@@H](CCC(N)=O)C(N)=O)[C@@H](C)CC)[C@@H](C)CC)[C@@H](C)O)[C@@H](C)O)C(C)C)C(C)C [MLT, Melittin] | 8 | ≤ 6 | 30 | ≤ 6 | 30 | – | – |
| MLT-RhB: Rhodamine B-labeled MLT | – | – | – | – | – | significantly higher than that in the control group | ~1.5 |
